Laboratory results published in PubChem BioAssay (NCI).
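These data come from cells grown in 96-well plates and exposed to compound for 48 hours at five concentrations. TGI is the concentration that stops growth completely.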

Tests used:
Test in all cases: DTP human tumour cell line panel, 48 h
[1] = test system: LOX IMVI melanoma
[2] = test system: SK-MEL-2 melanoma
[3] = test system: UACC-257 melanoma
[4] = test system: OVCAR-5 ovarian
[5] = test system: KM12 colon
[6] = test system: SNB-19 CNS
[7] = test system: MDA-N
[8] = test system: RPMI-8226 leukemia
[9] = test system: BT-549 breast
[10] = test system: HCT-15 colon
[11] = test system: HCC-2998 colon
[12] = test system: PC-3 prostate
[13] = test system: MALME-3M melanoma
[14] = test system: 786-0 renal
[15] = test system: SK-MEL-28 melanoma
[16] = test system: ACHN renal
[17] = test system: NCI-H460 lung
[18] = test system: SR leukemia
[19] = test system: MOLT-4 leukemia
[20] = test system: HCT-116 colon
[21] = test system: A498 renal
[22] = test system: TK-10 renal
[23] = test system: SF-539 CNS
[24] = test system: IGROV1 ovarian
[25] = test system: SW-620 colon
[26] = test system: NCI-H23 lung
[27] = test system: DU-145 prostate
[28] = test system: HL-60(TB) leukemia
[29] = test system: SK-OV-3 ovarian
[30] = test system: NCI-H226 lung
[31] = test system: NCI-H522 lung
[32] = test system: M14 melanoma
[33] = test system: CAKI-1 renal
[34] = test system: CCRF-CEM leukemia
[35] = test system: HOP-92 NSCLC
[36] = test system: NCI/ADR-RES ovarian
[37] = test system: T-47D breast
[38] = test system: COLO 205 colon
[39] = test system: MDA-MB-231 breast
[40] = test system: SF-268 CNS
[41] = test system: MDA-MB-435
[42] = test system: A549 NSCLC
[43] = test system: OVCAR-4 ovarian
[44] = test system: HS 578T breast
[45] = test system: UACC-62 melanoma
[46] = test system: MCF7 breast
[47] = test system: HOP-62 NSCLC
[48] = test system: UO-31 renal
[49] = test system: OVCAR-8 ovarian
[50] = test system: RXF 393 renal
[51] = test system: K-562 leukemia
[52] = test system: U251 CNS
[53] = test system: SK-MEL-5 melanoma
[54] = test system: EKVX NSCLC
[55] = test system: OVCAR-3 ovarian
[56] = test system: HT29 colon
[57] = test system: SF-295 CNS
[58] = test system: SN12C renal
[59] = test system: SNB-75 CNS

COc1ccc(C2SCC(=O)N2NC(=O)C(C)Oc2ccccc2C)cc1 (stereo unspecified)
TGI [1]: > 100 µM
TGI [2]: > 100 µM
TGI [3]: > 100 µM
TGI [4]: > 100 µM
TGI [5]: > 100 µM
TGI [6]: > 100 µM
TGI [7]: > 100 µM
TGI [8]: > 100 µM
TGI [9]: > 100 µM
TGI [10]: > 100 µM
TGI [11]: > 100 µM
TGI [12]: > 100 µM
TGI [13]: > 100 µM
TGI [14]: > 100 µM
TGI [15]: > 100 µM
TGI [16]: > 100 µM
TGI [17]: > 100 µM
TGI [18]: > 100 µM
TGI [19]: 87.9 µM
TGI [20]: > 100 µM
TGI [21]: > 100 µM
TGI [22]: > 100 µM
TGI [23]: > 100 µM
TGI [24]: > 100 µM
TGI [25]: > 100 µM
TGI [26]: > 100 µM
TGI [27]: > 100 µM
TGI [28]: 61.2 µM
TGI [29]: > 100 µM
TGI [30]: > 100 µM
TGI [31]: > 100 µM
TGI [32]: > 100 µM
TGI [33]: > 100 µM
TGI [34]: > 100 µM
TGI [35]: > 100 µM
TGI [36]: > 100 µM
TGI [37]: > 100 µM
TGI [38]: > 100 µM
TGI [39]: > 100 µM
TGI [40]: > 100 µM
TGI [41]: > 100 µM
TGI [42]: > 100 µM
TGI [43]: > 100 µM
TGI [44]: > 100 µM
TGI [45]: > 100 µM
TGI [46]: > 100 µM
TGI [47]: > 100 µM
TGI [48]: > 100 µM
TGI [49]: > 100 µM
TGI [50]: > 100 µM
TGI [51]: > 100 µM
TGI [52]: > 100 µM
TGI [53]: > 100 µM
TGI [54]: > 100 µM
TGI [55]: > 100 µM
TGI [56]: > 100 µM
TGI [57]: > 100 µM
TGI [58]: > 100 µM
TGI [59]: > 100 µM

COc1ccc(CNc2nc3cc(C(F)(F)F)ccc3nc2-c2ccccc2)cc1OC
TGI [1]: 76.8 µM
TGI [2]: > 100 µM
TGI [3]: > 100 µM
TGI [4]: > 100 µM
TGI [5]: > 100 µM
TGI [6]: > 100 µM
TGI [7]: > 100 µM
TGI [9]: > 100 µM
TGI [10]: > 100 µM
TGI [11]: 45.9 µM
TGI [12]: > 100 µM
TGI [13]: > 100 µM
TGI [14]: > 100 µM
TGI [16]: > 100 µM
TGI [17]: 46.5 µM
TGI [18]: > 100 µM
TGI [19]: > 100 µM
TGI [20]: > 100 µM
TGI [22]: > 100 µM
TGI [23]: > 100 µM
TGI [24]: > 100 µM
TGI [25]: > 100 µM
TGI [26]: > 100 µM
TGI [27]: > 100 µM
TGI [28]: > 100 µM
TGI [29]: > 100 µM
TGI [31]: > 100 µM
TGI [32]: > 100 µM
TGI [33]: 75.4 µM
TGI [34]: > 100 µM
TGI [36]: > 100 µM
TGI [37]: > 100 µM
TGI [38]: > 100 µM
TGI [39]: > 100 µM
TGI [40]: > 100 µM
TGI [41]: > 100 µM
TGI [42]: > 100 µM
TGI [43]: > 100 µM
TGI [44]: > 100 µM
TGI [45]: > 100 µM
TGI [46]: 42.5 µM
TGI [47]: > 100 µM
TGI [48]: > 100 µM
TGI [49]: > 100 µM
TGI [50]: > 100 µM
TGI [51]: > 100 µM
TGI [53]: 42.4 µM
TGI [54]: > 100 µM
TGI [55]: > 100 µM
TGI [56]: 61.1 µM
TGI [57]: > 100 µM
TGI [59]: > 100 µM
